Test results: paper PMC7438494 (Communications Biology, 2020)
“And” between values parts separate entries of the source, which are not always exact repeats. Equal entries are not always repeated. Where two headings read alike, the source gives them in different places.

Key:
[1] = molecular target: yeast mitochondrial ATP synthase (Saccharomyces cerevisiae, UniProt P00854+P61829); assay: biochemical; details: for Cyanide sensitive: 60 min
yeast F1Fo ATP synthase = yeast F1Fo ATP synthase (Saccharomyces cerevisiae, UniProt P00854+P61829); assay: biochemical; details: for ATP hydrolysis activity, Exp 1-3: upper block, head prints SMP, listed as Og-A
human ATP synthase = human ATP synthase (Homo sapiens, UniProt P00846+P05496); assay: biochemical; type: biochemical
[2] = molecular target: yeast mitochondrial ATP synthase (yeast SMP) (Saccharomyces cerevisiae, UniProt P00854+P61829); assay: biochemical; details: for ATP hydrolysis activity, Exp 1-3: SMP, lower block, listed as Og-A
[3] = molecular target: yeast mitochondrial ATP synthase (Saccharomyces cerevisiae, UniProt P61829); assay: Uncoupling of the yeast mitochondrial ATP synthase; type: biochemical; details: high concentrations
[4] = Oligomycin-A 0.05 μM, cyanide sensitive, yeast frozen mito
[5] = Oligomycin-A 0.6 μM, cyanide sensitive, yeast frozen mito
[6] = 1 ug/ml Oligomycin, […], frozen human mito
[7] = read-out: % activity, cyanide sensitive ATP synthesis

Molecule: CC[C@@H]1/C=C/C=C/C[C@H](C)[C@@H](O)[C@](C)(O)C(=O)[C@H](C)[C@@H](O)[C@H](C)C(=O)[C@H](C)[C@@H](O)[C@H](C)/C=C/C(=O)O[C@H]2[C@@H](C)[C@@H](CC1)O[C@@]1(CC[C@@H](C)[C@@H](C[C@H](C)O)O1)[C@@H]2C [Oligomycin A]
- remaining activity at 0.0005 µM ([1]; Oligomycin-A 0.0005 μM, cyanide sensitive, yeast frozen mito): 110%
- remaining activity at 0.005 µM ([1]; Oligomycin-A 0.005 μM, cyanide sensitive, yeast frozen mito): 101%
- Cyanide sensitive ([1]; Oligomycin-A 0.01 μM, yeast frozen mito): 21.2843 nmol/min/mg and 38.526 nmol/min/mg and 37.46 nmol/min/mg
- inhibition at 0.05 µM [1, 4]: 16.9%
- remaining activity at 0.05 µM [1, 4]: 83.1%
- Cyanide sensitive ([1]; Oligomycin-A 0.05 μM, yeast frozen mito): 16.4622 nmol/min/mg and 31.3703 nmol/min/mg
- Cyanide sensitive ([1]; Oligomycin-A 0.08 μM, yeast frozen mito): 15.1607 nmol/min/mg and 21.1456 nmol/min/mg and 29.9684 nmol/min/mg
- Cyanide sensitive ([1]; Oligomycin-A 0.2 μM, yeast frozen mito): 6.587 nmol/min/mg and 5.248 nmol/min/mg and 9.417 nmol/min/mg
- inhibition at 0.6 µM [1, 5]: 95.6%
- remaining activity at 0.6 µM [1, 5]: 4.43%
- Cyanide sensitive ([1]; Oligomycin-A 0.6 μM, yeast frozen mito): 0.8771 nmol/min/mg and 1.272 nmol/min/mg and 1.435 nmol/min/mg
- inhibition at 1 µM ([1]; Oligomycin-A 1 μM, cyanide sensitive, yeast frozen mito, read-out: % inhibition): 100%
- inhibition at 2 µM ([1]; Oligomycin-A 2 μM, cyanide sensitive, yeast frozen mito): 100%
- IC50 ([1]; n = 3, read-out: IC50 ± SEM, ATP synthesis, yeast mitochondria): 100 ± 8 nM
- inhibition at 1 µM ([1]; read-out: inhibition of cyanide sensitive ATP synthesis, yeast mitochondria): 98%
- inhibition of ATP hydrolysis by yeast F1Fo (extent) (yeast F1Fo ATP synthase; F1Fo in bicelles, maximal): 85%
- IC50 (yeast F1Fo ATP synthase; F1Fo in bicelles, n = 3, read-out: IC50 ± SEM, ATP hydrolysis, purified yeast F1Fo): 107 ± 1.1 nM
- IC50 (yeast F1Fo ATP synthase; F1Fo in bicelles, read-out: IC50, ATP hydrolysis, purified yeast F1Fo): ~100 nM
- EC50 (yeast F1Fo ATP synthase; reconstituted in bicelles, n = 3, read-out: EC50, inhibition of the ATPase activity of purified yeast ATP synthase): 107 ± 1.1 nM
- ATP hydrolysis activity, Exp 1-3 (yeast F1Fo ATP synthase; Og-A 0.0101128 uM): 0.9127 and 0.9068 and 0.9174
- ATP hydrolysis activity, Exp 1-3 (yeast F1Fo ATP synthase; Og-A 0.0505638 uM): 0.7469 and 0.6678 and 0.6555
- ATP hydrolysis activity, Exp 1-3 (yeast F1Fo ATP synthase; Og-A 0.252819 uM): 0.4366 and 0.4305 and 0.5
- ATP hydrolysis activity, Exp 1-3 (yeast F1Fo ATP synthase; Og-A 1.26409 uM): 0.3568 and 0.3661 and 0.3907
- ATP hydrolysis activity, Exp 1-3 (yeast F1Fo ATP synthase; Og-A 6.32047 uM): 0.2269 and 0.2038 and 0.2221
- ATP hydrolysis activity, Exp 1-3 (yeast F1Fo ATP synthase; Og-A 15.8012 uM): 0.2056 and 0.2009 and 0.2105
- ATP hydrolysis activity, Exp 1-3 (yeast F1Fo ATP synthase; Og-A 31.6024 uM): 0.2364 and 0.1839 and 0.1796
- extent of inhibition of ATP synthesis of the human enzyme (human ATP synthase): nearly completely
- % activity (human ATP synthase; [6]): 19.1774%
- % inhibition (human ATP synthase; [6]): 80.8226%
- ATP produced, nmol/min/mg (human ATP synthase; [6]): 1.61 nmol/min/mg
- ATP produced, pmol/min/mg (human ATP synthase; [6]): 1614.78 pmol/min/mg
- activity at 1 µg/mL (human ATP synthase; [6]): 19.2%
- inhibition at 1 µg/mL (human ATP synthase; [6]): 80.8%
- IC50 (human ATP synthase; IC50 ± SEM, ATP synthesis, human mitoplasts): 5.4 ± 0.6 nM
- remaining activity at 0.001 µM (human ATP synthase; [7]): 70.9%
- remaining activity at 0.007 µM (human ATP synthase; [7]): 34.6%
- remaining activity at 0.01 µM (human ATP synthase; [7]): 18.4%
- inhibition at 1.25 µM (human ATP synthase; read-out: inhibition of cyanide sensitive ATP synthesis, human mitoplasts): 98%
- ATP hydrolysis activity, Exp 1-3 ([2]; Og-A 0.0101 uM): 0.8851 and 0.8864 and 0.89
- ATP hydrolysis activity, Exp 1-3 ([2]; Og-A 0.0506 uM): 0.8632 and 0.8483 and 0.878
- ATP hydrolysis activity, Exp 1-3 ([2]; Og-A 0.2528 uM): 0.7765 and 0.7817 and 0.7989
- ATP hydrolysis activity, Exp 1-3 ([2]; Og-A 0.632 uM): 0.6228 and 0.6613 and 0.6108
- ATP hydrolysis activity, Exp 1-3 ([2]; Og-A 1.2641 uM): 0.4529 and 0.4416 and 0.4356
- ATP hydrolysis activity, Exp 1-3 ([2]; Og-A 6.3205 uM): 0.1135 and 0.1053 and 0.1112
- ATP hydrolysis activity, Exp 1-3 ([2]; Og-A 15.8012 uM): 0.0859 and 0.0937 and 0.0705
- ATP hydrolysis activity, Exp 1-3 ([2]; Og-A 31.6024 uM): 0.097 and 0.0697 and 0.0822
- IC50 ([2]; n = 3, read-out: IC50 ± SEM, ATP hydrolysis, yeast SMP): ~1100 nM and 1100 nM

Molecule: venturicidin
- uncoupling of the yeast mitochondrial ATP synthase [3]: uncouples
